Here are results for 13 molecules from article PMC5796218 (International Journal of Molecular Sciences, 2018).

Experiment [1] addresses MuOPR 121–131 peptide (mu opioid receptor) (Homo sapiens, UniProt P35372). The experiment is described as follows: biochemical.
For experiment [2], the target named is MuOPR 38–51 peptide (mu opioid receptor) (Homo sapiens, UniProt P35372). The experiment is described as follows: biochemical.
In experiment [3] the target is MuOPR 132–143 peptide (mu opioid receptor) (Homo sapiens, UniProt P35372). As to the kind of experiment: biochemical.
In experiment [4] the target is MuOPR 111–122 peptide (mu opioid receptor) (Homo sapiens, UniProt P35372). As to the kind of experiment: biochemical.
In experiment [5] the target is MuOPR 211–226 peptide (mu opioid receptor) (Homo sapiens, UniProt P35372). The experiment is described as follows: biochemical.
Experiment [6] deals with intact, purified human mu opioid receptor (muOPR) (Homo sapiens, UniProt P35372). As to the kind of experiment: biochemical. Particulars: for binding to intact muOPR (in words): UV spectra, serial additions in Tris buffer. How it is done:
MuOPR expression was achieved using the muOPR transformed C43 (DE3) cell strain of E. coli in Terrific Broth medium as reported earlier with 0.4 mM isopropyl β-D-1-thiogalactopyranoside induction at 18 °C for 24 h. Bacterial cell cultures were harvested by centrifugation at 4000× g for 20 min. Periplasmic fraction from the harvested cells was removed by osmatic shock. Cells were resuspended in 7 mL of lysis buffer (20 mM Tris-HCl pH 8.0, 150 mM NaCl, 10% glycerol, 2 mM MgCl2, 10 μM E-64, 1 μM pepstatin-A, 10 μM leupeptin, 1 mM pefabloc SC, 2 mM β-Mercaptoethanol, 1 mg/mL lysozyme, 30 U/mL DNase) per gram of cell pellet and incubated on ice for 30 min with continuous stirring. […] The solubilized membrane sample was centrifuged at 100,000× g for 1 h at 4 °C and the supernatant was collected. Imidazole was added to the supernatant to a final concentration of 5 mM before starting purification using Ni-NTA resin in batch mode as reported. Eluted fractions with muOPR were pooled, concentrated and subjected to size exclusion chromatography (SEC) using HiLoad 16/600 Superdex 200 pg column (GE Healthcare Sciences, Berlin, Germany) equilibrated with 20 mM Tris pH 8, 150 mM NaCl, 0.1% Fos12, 10% Glycerol and 1 mM TCEP. SEC elution fractions were analyzed by SDS-PAGE and western blotting with Monoclonal Anti-polyHistidine-Peroxidase antibody (Sigma-Aldrich) for protein presence and purity before use.
The spectrum of the wells was then recorded from 190 to 260 nm using a Spectramax plus scanning spectrophotometer (Molecular Devices, San Jose, CA, USA) using SOFTMax PRO software (Molecular Devices, San Jose, CA, USA). The procedure described above was repeated an additional eleven times using compound dilutions of increasing concentration each time.
Data were analyzed in Excel. The raw spectra were processed by averaging the three runs of each condition and then subtracting the absorbance of the buffer alone at each volume. The triplicate data for each experimental condition were averaged. The compound + buffer data were subtracted from the muOPR + compound data at each volume to leave the spectrum of the muOPR under that experimental condition. […] Because the final calculations involve several subtractions, error bars […].

The next experiment addresses muOPR peptides (Homo sapiens, UniProt P35372). It counts as binding.
For experiment [7], the target named is INSR 105–113 peptide (insulin receptor) (Homo sapiens, UniProt P06213). The experiment is described as follows: biochemical.
Experimental: (§1) Each of these receptor peptides were made into individual stock solutions with a concentration of 1 mg/mL in pH 7.40 phosphate buffered saline solution (Fischer Scientific, Hampton, NH, USA). For each individual test, the stock solution was diluted to 0.1 or 0.2 mg/mL solution. […] The adrenergic or compounds were made up at 1.0 mM solutions and then serially diluted by thirds eleven times using phosphate buffer.
(§2) After the solutions were made, a 96-well quartz crystal plate was prepared to be run through the spectrophotometer at room temperature (approximately 24 °C). […] The absorbance of each receptor peptide without the presence of the adrenergic compound was measured as well. The absorbance of each well was measured at every 10-nm increment from 190–260 nm. The maximum absorbance that can be measured was set to be 4. Each well had 200 μL of solution, so if the absorbance of one component was being measured, it was diluted by half with phosphate buffer.
(§3) If the measured absorbance is different than the additive absorbance of each compound, then that indicates some sort of molecular interaction. The binding can be quantified by graphing the difference in absorbance against the concentration of the compound varied to provide a binding curve. The absorbance for the phosphate buffer is subtracted for each well before any calculations are done. The data are analyzed by finding the additive absorbance, and plotting the difference between this absorbance and the actual absorbance against the concentration of the adrenergic compound. […] The binding constants were estimated from the half-saturation point at 200 nm since the absorbance differences tended to be maximized at this wavelength.
In experiment [8] the target is INSR 157–166 peptide (insulin receptor) (Homo sapiens, UniProt P06213). As to the kind of experiment: biochemical.
Experimental: as §1, §2
(§4) If the measured absorbance is different than the additive absorbance of each compound, then that indicates some sort of molecular interaction. The binding can be quantified by graphing the difference in absorbance against the concentration of the compound varied to provide a binding curve. The absorbance for the phosphate buffer is subtracted for each well before any calculations are done. […]
Experiment [9] concerns the target B2AR 175–188 peptide (β-2-adrenergic receptor) (Homo sapiens, UniProt P07550). The experiment is described as follows: biochemical.
Experimental: as §1, §2, §3
The target in experiment [10] is HIST 96–107 peptide (histamine 1 receptor) (Homo sapiens, UniProt P35367). As to the kind of experiment: biochemical.
In experiment [11] the target is B2AR 97–106 peptide (β-2-adrenergic receptor) (Homo sapiens, UniProt P07550). As to the kind of experiment: biochemical.
Experimental: as §1, §2, §3
Experiment [12] addresses D1DR 175–188 peptide (dopamine receptor D1) (Homo sapiens, UniProt P21728). As to the kind of experiment: biochemical.
Experiment [13] has as its target HIST 166–172 peptide (histamine 1 receptor) (Homo sapiens, UniProt P35367). The experiment is described as follows: biochemical.
The target in experiment [14] is B2AR 93–100 peptide (β-2-adrenergic receptor) (Homo sapiens, UniProt P07550). The experiment is described as follows: biochemical.
Experimental: as §1, §2, §3
Experiment [15] deals with HIST 89–98 peptide (histamine 1 receptor) (Homo sapiens, UniProt P35367). The experiment is described as follows: biochemical.
Experiment [16] concerns the target B2AR 103–113 peptide (β-2-adrenergic receptor) (Homo sapiens, UniProt P07550). The experiment is described as follows: biochemical.
Experimental: as §1, §2, §4
Experiment [17] concerns the target HIST 77–87 peptide (histamine 1 receptor) (Homo sapiens, UniProt P35367). As to the kind of experiment: biochemical.
The target of experiment [18] is D1DR 89–100 peptide (dopamine receptor D1) (Homo sapiens, UniProt P21728). As to the kind of experiment: biochemical.
Experiment [19] concerns the target HIST 177–183 peptide (histamine 1 receptor) (Homo sapiens, UniProt P35367). As to the kind of experiment: biochemical.
The target in experiment [20] is HIST 105–115 peptide (histamine 1 receptor) (Homo sapiens, UniProt P35367). The experiment is described as follows: biochemical.
In experiment [21] the target is Met-enkephalin (Homo sapiens). As to the kind of experiment: UV spectroscopy. The note with it: modification not given.

Counter-ions that a name gives are not always drawn. Like-named read-outs stand apart in the source and are kept apart here.

Chain of muOPR peptides (P35372 with tags, fused parts or gaps): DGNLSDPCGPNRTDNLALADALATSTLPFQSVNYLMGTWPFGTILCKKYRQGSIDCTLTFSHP
Chain of intact, purified human mu opioid receptor (muOPR) (P35372 whole entry): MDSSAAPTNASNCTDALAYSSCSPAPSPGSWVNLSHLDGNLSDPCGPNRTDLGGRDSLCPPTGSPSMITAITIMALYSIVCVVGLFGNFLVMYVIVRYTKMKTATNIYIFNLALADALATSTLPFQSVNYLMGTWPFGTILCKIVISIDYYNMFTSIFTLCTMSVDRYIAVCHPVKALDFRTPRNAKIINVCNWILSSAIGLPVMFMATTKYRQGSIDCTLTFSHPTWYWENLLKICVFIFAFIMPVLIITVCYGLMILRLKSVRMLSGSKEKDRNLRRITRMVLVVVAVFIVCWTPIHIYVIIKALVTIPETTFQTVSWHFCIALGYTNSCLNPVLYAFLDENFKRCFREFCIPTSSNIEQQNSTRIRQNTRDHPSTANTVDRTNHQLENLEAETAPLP
Experimental for muOPR peptides: as §1, §2, §3

Turning to `NCCc1c[nH]c2ccc(O)cc12` [5HT, 5-hydroxytryptamine], the Kd (as a rule, the equilibrium constant for the complex coming apart) was 350 µM in experiment [1]; 100 µM in experiment [2]; 100 µM in experiment [3]; 100 µM in experiment [4]; 90 µM in experiment [5].

`CC(=O)OCC[N+](C)(C)C` [ACh, acetylcholine]: the Kd in [1] is above 1000 µM; in experiment [2], above 1000 µM; in experiment [6] it was above 1000 µM; in [6] (Kd @ 210 nm (μM), 210 nm) it was above 1000 µM; in experiment [3], above 1000 µM; in experiment [4], above 1000 µM. This molecule also showed a dissociation constant Kd in [5] above 1000 µM. Besides, the “binding to intact muOPR (in words)” value in [6] is “No significant binding”. Also, at muOPR peptides (UV spectroscopy), the “binding to the muOPR peptides (in words)” value was “no measurable binding”.

`O=C1O[C@H]([C@@H](O)CO)C(O)=C1O` [ASC, ascorbic acid]: the “binding to intact muOPR (in words)” value in [6] is recorded as “No significant binding”. In addition, at muOPR peptides (UV spectroscopy), the “binding to the muOPR peptides (in words)” value was “did not bind”.

Turning to `NCCc1ccc(O)c(O)c1` [DOP, dopamine], at muOPR peptides, the “binding to the muOPR peptides (in words)” value is reported as “only displayed the low affinity binding”.

As for `O=C(O)CN(CCN(CC(=O)O)CC(=O)O)CC(=O)O` [EDTA, ethylenediaminetetraacetic acid], the equilibrium dissociation constant (Kd) in [7] and in experiment [8] was above 1000 µM in each case.

As to `OC[C@H]1OC(O)[C@H](O)[C@@H](O)[C@@H]1O` (some centres unmarked) [GLUC, glucose], the Kd in experiment [1], in experiment [9], in experiment [10], in experiment [11], in experiment [2] and in experiment [12] was above 1000 µM throughout. Further, the Kd in [13], in experiment [14], in [3], in [15], in [16] and in [17] was above 1000 µM throughout. Further, the Kd in experiment [18], in [4], in [5], in experiment [19] and in experiment [20] was above 1000 µM in each case.

Consider `NCCc1c[nH]cn1` [Hist, histamine], for which, at muOPR peptides, the “binding to the muOPR peptides (in words)” value is reported as “no measurable binding”.

In the case of `CN1CC[C@]23c4c5ccc(O)c4O[C@H]2[C@@H](O)C=C[C@H]3[C@H]1C5` [Morph, morphine sulfate], the figures for the Kd in experiment [12] and in experiment [18] were 10 µM and 20 µM, respectively.

For the molecule `C=CCN1CC[C@]23c4c5ccc(O)c4O[C@H]2C(=O)CC[C@@]3(O)[C@H]1C5` [Nalox, naloxone], the Kd in experiment [9] is 40 µM; in experiment [11], 6 µM; in [12], 20 µM; in [7], 20 µM; in experiment [14] it was 5 µM; in experiment [16], 3 µM. Further, the Kd in experiment [18] stood at 5 µM; in experiment [8] it was 200 µM.

With `Cc1cc2nc3c(=O)[nH]c(=O)nc-3n(C[C@H](O)[C@H](O)[C@H](O)CO)c2cc1C` [RIBO, riboflavin], the Kd in experiment [1] was above 1000 µM; in experiment [9], 500 µM; in [10], 500 µM; in experiment [11] it was 600 µM; in experiment [2], 50 µM; in [12], 300 µM. Moreover, the dissociation constant Kd is 500 µM in experiment [7]; 400 µM in experiment [14]; 100 µM in experiment [3]; 400 µM in experiment [15]; above 1000 µM in experiment [17]; 600 µM in experiment [18]. In addition, the figures for the equilibrium dissociation constant (Kd) in [4], in experiment [5] and in experiment [20] were above 1000 µM, above 1000 µM and 450 µM, respectively.

In the case of NLALADALATST, in experiment [21], the dissociation constant Kd was 80 µM.

With KYRQGSIDCTLTFSHP, the equilibrium dissociation constant (Kd) in [21] turned out to be 1 µM.

Take TLPFQSVNYL: in experiment [21], the dissociation constant Kd came to 90 µM.
